From patent US9073857B2, “Aripiprazole type I microcrystal, aripiprazole solid preparations, and preparation method” (SHANGHAI ZHONGXI PHARMACEUTICAL CORPORATION, priority 2011, dated 2015)

Tests used:
[1] = Particle size by laser particle size distribution analyzer; format: physicochemical; details: for particle size D10 / particle size D50 / particle size D90 / particle size D[4,3]: Effect Example 2, microcrystals of the Examples
Description: Measure the particle size of aripiprazole in the sample by the following methods, and compare the particle size of aripiprazole in different prescriptions and under different operating conditions.
Test Instrument: BT˜9300S laser particle size distribution analyzer (Dandong Baxter technology Co., Ltd); BT˜800 automatic loop sampling system.
Test conditions: the medium of the loop sampling system is water, with the volume of about 570 ml, and the centrifugal pump speed is 1600 rpm.
Test Method: add appropriate amount of the samples into the loop sampling system, and make the absorbance of the system up to 15%±10, turn on the ultrasonic dispersion for 3 min, continuous sample for 6 times, and gain the average particle size.
1. Dissolve 10 g aripiprazole into aqueous ethanol solution containing hydrochloric acid (the molar ratio of hydrochloric acid to aripiprazole is 1.1, the concentration of the aqueous ethanol solution is 95%, the mass of the aqueous ethanol solution is 30 g), quickly add the 10% aqueous sodium hydroxide (the molar ratio of sodium hydroxide to hydrochloric acid is 1.01) all at once while stirring. Stir for 5 min then add 100 g water, stir again for 5 min, filter the precipitated crystal, wash twice with 20 g water each time and filter each time, dry the crystal at 80° C. for 4 hours, then obtain the aripiprazole microcrystal.
(§1) 2. Dissolve 10 g aripiprazole into aqueous ethanol solution with hydrochloric acid (the molar ratio of hydrochloric acid to aripiprazole is 1.02), quickly add the 10% aqueous sodium hydroxide (the molar ratio of sodium hydroxide to hydrochloric acid is 1.0) all at once while stirring (with stirring linear speed of 160 m/min). Stir for 5 min then add 100 g water, stir again for 5 min, filter the precipitated crystal, wash twice with 20 g water each time and filter each time, dry the crystals at 80° C. for 4 hours, then obtain the aripiprazole microcrystal.
as §1, with “3. Dissolve” for “2. Dissolve”, “acid (2.3 g 36% hydrochloric acid, 28.5 g anhydrous ethanol. The concentration” for “acid (the molar ratio”, “of the aqueous ethanol solution” for “of hydrochloric acid to aripiprazole”, “is 95%),” for “is 1.02), quickly”, “1.0)” for “1.0) all at once”, “the crystal” for “the crystals”

[2] = within 45 minutes; disclosed at the Japan and South Korea Analytical Chemistry Annual Meeting in 1998; cited from earlier work
[3] = crushed by the universal grinder through mechanical pulverization; cited from earlier work

| SMILES | particle size D10 [1] [micron] | particle size D50 [1] [micron] | particle size D90 [1] [micron] | particle size D[4,3] [1] [micron] | D[4,3] ([1]; starting aripiprazole microcrystals of Example 1) [mircon] | dissolution rate [2] | average particle size [3] |
| --- | --- | --- | --- | --- | --- | --- | --- |
| O=C1CCc2ccc(OCCCCN3CCN(c4cccc(Cl)c4Cl)CC3)cc2N1 [Contrastive Example 1, aripiprazole] | 9.31 | 29.85 | 60.39 | 32.85 |  |  |  |
| O=C1CCc2ccc(OCCCCN3CCN(c4cccc(Cl)c4Cl)CC3)cc2N1 [Example 2, aripiprazole] | 1.85 | 10.91 | 29.82 | 14.17 |  |  |  |
| O=C1CCc2ccc(OCCCCN3CCN(c4cccc(Cl)c4Cl)CC3)cc2N1 [Example 3, aripiprazole] | 1.43 | 11.64 | 34.65 | 15.64 |  |  |  |
| O=C1CCc2ccc(OCCCCN3CCN(c4cccc(Cl)c4Cl)CC3)cc2N1 [Example 4, aripiprazole] | 1.18 | 8.78 | 24.78 | 10.99 |  |  |  |
| O=C1CCc2ccc(OCCCCN3CCN(c4cccc(Cl)c4Cl)CC3)cc2N1 [aripiprazole type I crystal, aripiprazole] |  |  |  |  |  | less than 70% |  |
| O=C1CCc2ccc(OCCCCN3CCN(c4cccc(Cl)c4Cl)CC3)cc2N1 [aripiprazole, 7-[4-[4-(2,3-dichlorophenyl)-1-piperazinyl]butoxy]-3,4-dihydro-2(1H)-quinolinone] |  |  |  |  |  |  | about 100 micron |

Now from value to compound, other results behind:

| particle size D10 [1] [micron] | particle size D50 [1] [micron] | particle size D90 [1] [micron] | particle size D[4,3] [1] [micron] | D[4,3] ([1]; starting aripiprazole microcrystals of Example 1) [mircon] | SMILES | dissolution rate [2] | average particle size [3] |
| --- | --- | --- | --- | --- | --- | --- | --- |
| 0.74 | 4.75 | 16.34 | 6.79 |  | O=C1CCc2ccc(OCCCCN3CCN(c4cccc(Cl)c4Cl)CC3)cc2N1 [Example 5, aripiprazole] |  |  |
| 1.52 | 9.67 | 32.17 | 13.42 |  | O=C1CCc2ccc(OCCCCN3CCN(c4cccc(Cl)c4Cl)CC3)cc2N1 [Example 23, aripiprazole] |  |  |
| 1.00 | 3.93 | 8.7 | 4.73 |  | O=C1CCc2ccc(OCCCCN3CCN(c4cccc(Cl)c4Cl)CC3)cc2N1 [Example 24, aripiprazole] |  |  |
|  |  |  |  | 32.85 | O=C1CCc2ccc(OCCCCN3CCN(c4cccc(Cl)c4Cl)CC3)cc2N1 [aripiprazole microcrystals, aripiprazole] |  |  |
